Test results: patent US20260250318A1, “COMPOSITIONS AND METHODS FOR CROSSING THE BLOOD BRAIN BARRIER” (VOYAGER THERAPEUTICS, INC., priority 2022, published 2026)

What follows are sequences tested on brain (assay: Maturation of TTM-001 capsid, NGS enrichment in brain of CD-1 Outbred mice). Conditions: NGS fold-enrichment of TTM-001 matured AAV capsid variants in the brain of CD-1 Outbred mice; intravenous 1.0×10^12 VG/dose; 14 days in life; RNA; relative to non-matured TTM-001 control.
Assay type: in vivo
In short: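 Pooled matured TTM-001 or TTM-002 capsid libraries (loop IV region randomized by triple-codon or low-frequency point mutagenesis) dosed IV via tail vein at 1.0×10^12 VG/dose to three female CD-1 mice. Brain RNA taken after 14 days; RT-PCR and NGS gave fold enrichment versus parent TTM-001 or TTM-002 control.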
With KTINGSGSPHSKRTFQQT the “Fold enrichment over TTM-001” value was 3.879 fold.
With KTINGLASPHRKAQNQQT the “Fold enrichment over TTM-001” value was 2.737 fold.
With KTINGSGSPHSKNTRQQT the “Fold enrichment over TTM-001” value was 2.047 fold.
In the case of KTINGTRSPHAKAQNQQT, the “Fold enrichment over TTM-001” value is reported as 2.071 fold.
For KTINGSGSPHSLFPNQQT, the “Fold enrichment over TTM-001” value was 2.106 fold.
In the case of KTINGSGSPHSPLWNQQT, the “Fold enrichment over TTM-001” value is reported as 2.562 fold.
KTIRLRGSPHSKAQNQQT was tested, and the “Fold enrichment over TTM-001” value was 2.408 fold.
For KTINGSGSPHSKAQLFKT, the “Fold enrichment over TTM-001” value was 2.385 fold.
For KSINGSGSPHSKAHDQQT, the “Fold enrichment over TTM-001” value was 3.592 fold.
In the case of KTINGSGSPHSKLRNQQT, the “Fold enrichment over TTM-001” value is reported as 3.112 fold.
KTINGRQSPHAKAQNQQT was tested, and the “Fold enrichment over TTM-001” value was 2.026 fold.
KTINGSLSPHSCAQNQQT was tested, and the “Fold enrichment over TTM-001” value was 3.268 fold.
“KTINGSTSPHYLAQNQQT (peptide inserted in AAV capsid)” was tested, and the “Fold enrichment over TTM-001” value was 2.665 fold.
With KTINGRPSPHVKAQNQQT the “Fold enrichment over TTM-001” value was 2.419 fold.
In the case of KTINGSGSPHSKAQLRRT, the “Fold enrichment over TTM-001” value is reported as 3.825 fold.
In the case of KTINGSGSPHSKAQMKCT, the “Fold enrichment over TTM-001” value is reported as 2.039 fold.
With KTINGSGSPHSFVRNQQT the “Fold enrichment over TTM-001” value was 2.110 fold.
With KTINGYLSPHRKAQNQQT the “Fold enrichment over TTM-001” value was 2.762 fold.
With KTINGVTSPHWKAQNQQT the “Fold enrichment over TTM-001” value was 2.387 fold.
With KTINGSGSPHSKAQGVRT the “Fold enrichment over TTM-001” value was 2.188 fold.
In the case of KTINGMSSPHRKAQNQQT, the “Fold enrichment over TTM-001” value is reported as 2.352 fold.
For KTINGSGSPHSKRTYQQT, the “Fold enrichment over TTM-001” value was 2.870 fold.
For KTINGSPSPHYLAQNQQT, the “Fold enrichment over TTM-001” value was 2.391 fold.
In the case of KTINGSCSPHVRAQNQQT, the “Fold enrichment over TTM-001” value is reported as 2.406 fold.
KTINGSGSPHSKTRAQQT was tested, and the “Fold enrichment over TTM-001” value was 2.223 fold.
In the case of KTINGSGSPHSKSRRQQT, the “Fold enrichment over TTM-001” value is reported as 4.175 fold.
“KTINGSWSPHLVAQNQQT (peptide inserted in AAV capsid)” was tested, and the “Fold enrichment over TTM-001” value was 2.084 fold.
With KTINGSGSPHRSRQNQQT the “Fold enrichment over TTM-001” value was 2.270 fold.
KTINGSGSPHSLYLNQQT was tested, and the “Fold enrichment over TTM-001” value was 3.264 fold.
KEIKGSGSPHSKAQNQQT was tested, and the “Fold enrichment over TTM-001” value was 2.140 fold.
In the case of KTINGSGSPHGWAQNQQT, the “Fold enrichment over TTM-001” value is reported as 2.121 fold.
With KTINGSGSPHSKFKLQQT the “Fold enrichment over TTM-001” value was 2.244 fold.
For KTINGSGSPHSFLLNQQT, the “Fold enrichment over TTM-001” value was 2.341 fold.
For KTINGSGSPHLCLQNQQT, the “Fold enrichment over TTM-001” value was 3.425 fold.
In the case of KTINGSGSPHSKPRPQQT, the “Fold enrichment over TTM-001” value is reported as 2.352 fold.
KTINGSGSPHLLFQNQQT was tested, and the “Fold enrichment over TTM-001” value was 2.069 fold.
For KTINGSGSPHRRRQNQQT, the “Fold enrichment over TTM-001” value was 3.754 fold.
For KTINGSGSPHSKLCSQQT, the “Fold enrichment over TTM-001” value was 2.989 fold.
With KTINGSGSPHSKAHRSQT the “Fold enrichment over TTM-001” value was 2.819 fold.
With KTINGSGSPHSKAQVTLT the “Fold enrichment over TTM-001” value was 2.179 fold.
In the case of KTINGSGSPHSKRNLQQT, the “Fold enrichment over TTM-001” value is reported as 3.210 fold.
With KTINGSGSPHSKAQWSVT the “Fold enrichment over TTM-001” value was 2.501 fold.
With KTINGSGSPHSKAQNTRR the “Fold enrichment over TTM-001” value was 2.013 fold.
With KTINGLRSPHRKAQNQQT the “Fold enrichment over TTM-001” value was 3.676 fold.
With KTINGSGSPHSKAPNHLT the “Fold enrichment over TTM-001” value was 2.324 fold.
For KTINGTLSPHRKAQNQQT, the “Fold enrichment over TTM-001” value was 2.307 fold.
For KTINGSGSPHSKAQRSRT, the “Fold enrichment over TTM-001” value was 3.585 fold.
In the case of KTINRHSSPHSKAQNQQT, the “Fold enrichment over TTM-001” value is reported as 2.877 fold.
With KTINGSGSPHSKTRLQQT the “Fold enrichment over TTM-001” value was 2.145 fold.
In the case of KTINGSGSPHSKRTPQQT, the “Fold enrichment over TTM-001” value is reported as 3.169 fold.
In the case of KTINGSGSPHSKRLLQQT, the “Fold enrichment over TTM-001” value is reported as 2.659 fold.
With KTINGSGSPHSKASKRQT the “Fold enrichment over TTM-001” value was 4.117 fold.
KTINGRSSPHPKAQNQQT was tested, and the “Fold enrichment over TTM-001” value was 2.596 fold.
In the case of KTINGPLSPHRKAQNQQT, the “Fold enrichment over TTM-001” value is reported as 2.028 fold.
In the case of KTINGSGSPHSKAQRWLT, the “Fold enrichment over TTM-001” value is reported as 2.788 fold.
In the case of KTINGSGSPHCVAQNQQT, the “Fold enrichment over TTM-001” value is reported as 2.080 fold.
In the case of “KTINGSRSPHYKAQNQQT (peptide inserted in AAV capsid)”, the “Fold enrichment over TTM-001” value is reported as 2.879 fold.
For KTINGSGSPHLSWQNQQT, the “Fold enrichment over TTM-001” value was 3.047 fold.
In the case of KTINGSGSPHSKARANQT, the “Fold enrichment over TTM-001” value is reported as 2.300 fold.
KTINGSGSPHSKAQRGMT was tested, and the “Fold enrichment over TTM-001” value was 2.231 fold.
KTINGSGSPHSKANKSQT was tested, and the “Fold enrichment over TTM-001” value was 2.056 fold.
For “KTINGSSSPHLCAQNQQT (peptide inserted in AAV capsid)”, the “Fold enrichment over TTM-001” value was 3.402 fold.
With KTINGSGSPHSKAQWVLT the “Fold enrichment over TTM-001” value was 2.052 fold.
In the case of “KTINGSWSPHMLAQNQQT (peptide inserted in AAV capsid)”, the “Fold enrichment over TTM-001” value is reported as 2.106 fold.
KTINGSGSPHSKRIVQQT (KTINGSGSPHSKRLVQQT) was tested, and the “Fold enrichment over TTM-001” value was 2.151 fold.
For KTINGSGSPHSKARMAQT, the “Fold enrichment over TTM-001” value was 2.488 fold.
In the case of KTINGRISPHLKAQNQQT, the “Fold enrichment over TTM-001” value is reported as 2.028 fold.
KTINGSGSPHSKRAMQQT was tested, and the “Fold enrichment over TTM-001” value was 3.801 fold.
For KTINGSGSPHSKRGTQQT, the “Fold enrichment over TTM-001” value was 2.022 fold.
For KTINGSGSPHSKRATQQT, the “Fold enrichment over TTM-001” value was 2.283 fold.
KTINGSGSPHSRTRNQQT was tested, and the “Fold enrichment over TTM-001” value was 2.912 fold.
For KTINGSGSPHFHLQNQQT, the “Fold enrichment over TTM-001” value was 2.121 fold.
In the case of KTINGSGSPHSKAQNAKS, the “Fold enrichment over TTM-001” value is reported as 2.009 fold.
In the case of “KTINGSSSPHCLAQNQQT (peptide inserted in AAV capsid)”, the “Fold enrichment over TTM-001” value is reported as 2.074 fold.
KTINGSGSPHSKRSWQQT was tested, and the “Fold enrichment over TTM-001” value was 3.838 fold.
KTINGSGSPHSKWSLQQT was tested, and the “Fold enrichment over TTM-001” value was 2.453 fold.
In the case of KHRSGSGSPHSKAQNQQT, the “Fold enrichment over TTM-001” value is reported as 2.456 fold.
With KTINGSGSPHSKAKLRQT the “Fold enrichment over TTM-001” value was 3.976 fold.
With KTINGSGSPHSVFLNQQT the “Fold enrichment over TTM-001” value was 2.069 fold.
In the case of KTINGSGSPHSKAQRLWT, the “Fold enrichment over TTM-001” value is reported as 2.611 fold.
KTINGSGSPHSKALCRQT was tested, and the “Fold enrichment over TTM-001” value was 2.048 fold.
With KTINGSGSPHSLWSNQQT the “Fold enrichment over TTM-001” value was 4.467 fold.
With KPRLGSGSPHSKAQNQQT the “Fold enrichment over TTM-001” value was 2.406 fold.
For KRSKGSGSPHSKAQNQQT, the “Fold enrichment over TTM-001” value was 2.030 fold.
In the case of KTINGSGSPHSKCLSQQT, the “Fold enrichment over TTM-001” value is reported as 2.052 fold.
For KTINGRRSPHLKAQNQQT, the “Fold enrichment over TTM-001” value was 2.391 fold.
For KTINGLRSPHSKAQNQQT, the “Fold enrichment over TTM-001” value was 2.238 fold.
With KTINGYSSPHRKAQNQQT the “Fold enrichment over TTM-001” value was 2.007 fold.
In the case of KTINGSGSPHSWLQNQQT, the “Fold enrichment over TTM-001” value is reported as 2.665 fold.
With KTINSARSPHSKAQNQQT the “Fold enrichment over TTM-001” value was 2.292 fold.
KTINGFRSPHLKAQNQQT was tested, and the “Fold enrichment over TTM-001” value was 2.063 fold.
KTINGSGSPHPYAQNQQT was tested, and the “Fold enrichment over TTM-001” value was 2.598 fold.
In the case of KTINGSCSPHSGAQNQQT, the “Fold enrichment over TTM-001” value is reported as 2.994 fold.
For KTINGSGSPHSKAQFVRT, the “Fold enrichment over TTM-001” value was 2.596 fold.
In the case of KTINGSPSPHRRAQNQQT, the “Fold enrichment over TTM-001” value is reported as 3.216 fold.
In the case of KTINGSGSPHSKAQLTVT, the “Fold enrichment over TTM-001” value is reported as 4.026 fold.
In the case of KTINGSGSPHRTRQNQQT, the “Fold enrichment over TTM-001” value is reported as 3.190 fold.
“KTINGSVSPHSWAQNQQT (peptide inserted in AAV capsid)” was tested, and the “Fold enrichment over TTM-001” value was 2.562 fold.
KTINGSGSPHSKAWLLQT was tested, and the “Fold enrichment over TTM-001” value was 2.240 fold.
KTINGSGSPHSKAQNLRR was tested, and the “Fold enrichment over TTM-001” value was 2.231 fold.
With KTINGSGSPHSKAQYYVT the “Fold enrichment over TTM-001” value was 6.283 fold.
For “KYLSGSGSPHSKAQNQQT (peptide inserted in AAV capsid)”, the “Fold enrichment over TTM-001” value was 4.264 fold.
For KTINGFLSPHRKAQNQQT, the “Fold enrichment over TTM-001” value was 2.654 fold.
KTINGSASPHWSAQNQQT was tested, and the “Fold enrichment over TTM-001” value was 2.121 fold.
In the case of KTINGSGSPHSKWVSQQT, the “Fold enrichment over TTM-001” value is reported as 2.089 fold.
In the case of KTINGQRSPHVKAQNQQT, the “Fold enrichment over TTM-001” value is reported as 2.596 fold.
With KTINGSGSPHSKAQVSKT the “Fold enrichment over TTM-001” value was 3.406 fold.
In the case of KTINGSGSPHSKAYLRQT, the “Fold enrichment over TTM-001” value is reported as 3.356 fold.
For KTINGSGSPHSWTQNQQT, the “Fold enrichment over TTM-001” value was 2.084 fold.
With KTINGMRSPHVKAQNQQT the “Fold enrichment over TTM-001” value was 2.937 fold.
In the case of KPLPGSGSPHSKAQNQQT, the “Fold enrichment over TTM-001” value is reported as 2.495 fold.
In the case of KTINGSGSPHSKARMTQT, the “Fold enrichment over TTM-001” value is reported as 2.091 fold.
In the case of KTINGSGSPHSLLYNQQT, the “Fold enrichment over TTM-001” value is reported as 2.158 fold.
With KTINGSGSPHSKAQLGRT the “Fold enrichment over TTM-001” value was 2.069 fold.
